“Also recorded” adds a separate entry of the source. Like-named read-outs stand apart in the source and are kept apart here.
Experiments:
[1] = system: prostate cancer line (PC3); assay: MTT anti-proliferative assay, PC3 cells; type: cell-based; conditions: for IC50: read-out: IC50 ± SD (μM), PC3 Cell Line; for inhibition of the proliferation of PC3 cancer cells (in words): in comparison of doxorubucin
Procedure: (§1) Compounds found to be active in inhibiting thymidine phosphorylase were then subjected to MTT proliferation assay. Rapid proliferation is the property inherent to cancerous/tumor cells. This assay was carried out to study the effect of these compounds on proliferation of various cell lines. The cell lines which we targeted were mouse fibroblast cell line (3T3), and prostate cancer line (PC3).
(§2) Anti-proliferative activity of active compounds was evaluated by using the standard MTT (3-[4,5-dimethylthiazole-2-yl]-2,5-diphenyl-tetrazolium bromide) colorimetric assay in 96-well plate (Dimas et al., 1998).
(§3) It is a colorimetric assay that measures the reduction of MTT, by mitochondrial enzyme i.e. succinate dehydrogenase. The MTT enters into the mitochondria of cell, where it is reduced to an insoluble formazan salt (FIG. 8). The extent of MTT reduction was measured at 540 nm. As reduction of MTT can only occur in metabolically active cells, the level of activity is actually a measure of the viability of the cells (Vega-Avila and Pugsley, 2011).
(§4) Mouse fibroblast cell line 3T3 was cultured in DMEM, supplemented with 5% of FBS, 100 IU/mL of penicillin and 100 μg/mL of streptomycin, and kept at 37° C. in 5% CO2 incubator. For the preparation of cell culture, 100 μL/well of cell solution (5×10^4 cells/mL) was added into 96-well plate. The plate was incubated for overnight, and fresh medium was added after the removal of old medium. The test compounds were also added in different concentrations into the plate and plate was again incubated for 48 h. After the completion of this incubation period, 200 μL MTT (0.5 mg/mL) was added and plate was again incubated for 4 h, after this final incubation 100 μL of DMSO was added to each well. The level of MTT reduction to formazan was evaluated by change in absorbance at 540 nm using a micro plate reader (Spectra Max plus, Molecular Devices, CA, USA).

[2] = molecular target: T1, thymidine phosphorylase (E. coli) (Escherichia coli, UniProt P07650); assay: In-vitro thymidine phosphorylase inhibition assay (spectrophotometric); type: biochemical; conditions: recombinant E. coli TP, thymidine substrate, pH 7.0, 30° C., 290 nm; for IC50: read-out: IC50 (μM ± S.E.M.), thymidine phosphorylase inhibition
T1 construct: purchased Sigma Aldrich, USA; host or cells: Escherichia coli
T1 sequence (P07650 whole entry): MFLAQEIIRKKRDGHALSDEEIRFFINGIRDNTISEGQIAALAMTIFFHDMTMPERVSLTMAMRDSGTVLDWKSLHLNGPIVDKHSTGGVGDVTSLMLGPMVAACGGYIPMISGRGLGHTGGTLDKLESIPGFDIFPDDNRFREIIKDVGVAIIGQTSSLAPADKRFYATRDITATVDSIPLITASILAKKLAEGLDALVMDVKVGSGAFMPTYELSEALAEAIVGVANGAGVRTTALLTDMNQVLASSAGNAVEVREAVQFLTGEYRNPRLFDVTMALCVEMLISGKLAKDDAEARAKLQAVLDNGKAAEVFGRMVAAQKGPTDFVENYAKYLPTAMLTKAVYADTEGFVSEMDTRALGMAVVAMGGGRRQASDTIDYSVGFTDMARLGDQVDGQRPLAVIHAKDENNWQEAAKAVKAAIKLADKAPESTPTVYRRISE
Procedure: In vitro studies on thymidine phosphorylase were carried out in 96-well microtiter plate using Spectra Max-340 and Spectra Max-384 spectrophotometers (Molecular Devices, CA, USA). Deionized water used for buffer preparation was collected by Simplicity Water Purification System (Milipore).
Since human TP is not commercially available, we used commercially available recombinant E. coli TP (expressed in Escherichia coli) enzyme. Primary sequence of TP is mostly conserved throughout the evolution as mammalian TP share 39% sequence similarity with TP of E. coli. The mammalian enzyme also shared 65-70% similarity with the active site residues of E. coli TP enzyme (Bronckaers et al., 2009). Assay for thymidine phosphorylase inhibition was performed spectrophotometrically, following method of Bera et al. with some modifications (Bera et al., 2013).
The reaction catalyzed by thymidine phosphorylase involves reversible phosphorolysis of thymidine (FIG. 1), to thymine and 2-deoxyribose-1-phosphate (Bronckaers et al., 2009).
Reaction mixture contained 150 μL of potassium phosphate buffer (pH 7.0, 50 mM), 20 µL of enzyme (0.058 U/well) and 10 μL of test compound (0.5 mM in dimethylsulfoxide). The reaction mixture was incubated for 10 min at 30° C.
The enzyme inhibitory activities were calculated using the following formula:
Percent Inhibition=100−(O.D. of test/O.D. of control)×100
Where test is the enzyme activity with sample, and control is the enzyme activity without sample, and O.D. is optical density.
The IC50 of the compounds was calculated using EZ-Fit Enzyme Kinetic Program (Perrella Scientific Inc., Amhrest, U.S.A.).

[3] = system: mouse fibroblast cell line (3T3); assay: MTT anti-proliferative assay, 3T3 cells; type: cell-based; conditions: for inhibition of the proliferation of 3T3 cells (in words): in comparison to cyclohexamide; for IC50 / IC50 ± SD (μM), 3T3 Cell Line: 3T3 cells; for IC50: read-out: IC50 ± SD (μM), 3T3 Cell Line
Procedure: as §1, §2, §3, §4

Structure (SMILES) | IC50 [2] [µM] | IC50 ± SD (μM), PC3 Cell Line ([1]; PC3 cells) | IC50 (μM ± S.E.M.), thymidine phosphorylase inhibition [2] | other results
O=C(N/N=C/c1ccccc1O)c1ccc(O)cc1 [Compound 1, 4-Hydroxy-N′-[(E)-(2-hydroxyphenyl)methylidene]benzohydrazide] | 189.1 ± 0.1 | – | – | IC50 ([1]; Homo sapiens, PC-3, PC3 cells): 7.58 ± 0.462 µM; inhibition of the proliferation of PC3 cancer cells (in words) [1]: significantly inhibit; inhibition of the proliferation of 3T3 cells (in words) [3]: significantly inhibit
C[C@@H]1C[C@@H]([C@H](O)CC2CC(=O)NC(=O)C2)C(=O)[C@@H](C)C1 [Cyclohexamide, reference compound] | – | – | – | IC50 ([3]; 48 h): 0.26 ± 0.1 µM
O=C(N/N=C/c1cccc(O)c1)c1ccc(O)cc1 [Compound 2, 4-Hydroxy-N′-[(E)-(3-hydroxyphenyl)methylidene]benzohydrazide] | 180 ± 3 | Inactive | – | IC50 ± SD (μM), 3T3 Cell Line ([3]; 48 h): Inactive
O=C(N/N=C/c1cccc(O)c1O)c1ccc(O)cc1 [Compound 4, 4-Hydroxy-N′-[(E)-(2,3-dihydroxyphenyl)methylidene]benzohydrazide] | 170.6 ± 0.5 | – | – | IC50 ([1]; Homo sapiens, PC-3, PC3 cells): 7.61 ± 0.49 µM; inhibition of the proliferation of PC3 cancer cells (in words) [1]: significantly inhibit; inhibition of the proliferation of 3T3 cells (in words) [3]: significantly inhibit
O=C(N/N=C/c1cc(Br)ccc1O)c1ccc(O)cc1 [Compound 22, 4-Hydroxy-N′-[(E)-(5-bromo-2-hydroxyphenyl)methylidene]benzohydrazide] | – | – | Inactive | –
COc1cccc2c1C(=O)c1c(O)c3c(c(O)c1C2=O)C[C@@](O)(C(=O)CO)C[C@@H]3O[C@H]1C[C@H](N)[C@H](O)[C@H](C)O1 [Doxorubucin, reference compound] | – | – | – | IC50 ([1]; PC3 cells): 0.91 ± 0.1 µM
CCOc1cccc(/C=N/NC(=O)c2ccc(O)cc2)c1O [Compound 21, 4-Hydroxy-N′-[(E)-(3-ethoxy-2-hydroxyphenyl)methylidene]benzohydrazide] | 190.3 ± 0.4 | – | – | IC50 ([1]; Homo sapiens, PC-3, PC3 cells): 6.54 ± 0.278 µM; inhibition of the proliferation of PC3 cancer cells (in words) [1]: significantly inhibit; inhibition of the proliferation of 3T3 cells (in words) [3]: significantly inhibit
COc1ccc(/C=N/NC(=O)c2ccc(O)cc2)cc1OC [Compound 11, 4-Hydroxy-N′-[(E)-(3,4-dimethoxyphenyl)methylidene]benzohydrazide] | 204 ± 3 | Inactive | – | IC50 ± SD (μM), 3T3 Cell Line ([3]; 48 h): Inactive
C/C(=N\NC(=O)c1ccc(O)cc1)c1cc(O)ccc1O [Compound 28, 4-Hydroxy-N′-[(E)-1-(2,5-dihydroxyphenyl)ethylidene]benzohydrazide] | 183.4 ± 0.9 | Inactive | – | inhibition of the proliferation of 3T3 cells (in words) [3]: significantly inhibit
O=C(N/N=C/c1cccc(Cl)c1)c1ccc(O)cc1 [Compound 13, 4-Hydroxy-N′-[(E)-(3-chlorophenyl)methylidene]benzohydrazide] | 160.3 ± 1 | Inactive | – | IC50 ± SD (μM), 3T3 Cell Line ([3]; 48 h): Inactive
O=C(N/N=C/c1cc(O)c(O)cc1O)c1ccc(O)cc1 [Compound 6, 4-Hydroxy-N′-[(E)-(2,4,5-trihydroxyphenyl)methylidene]benzohydrazide] | 208 ± 0.9 | Inactive | – | inhibition of the proliferation of 3T3 cells (in words) [3]: significantly inhibit
Cc1ccccc1/C=N/NC(=O)c1ccc(O)cc1 [Compound 16, 4-Hydroxy-N′-[(E)-(2-methylphenyl)methylidene]benzohydrazide] | 177.2 ± 0.5 | Inactive | – | IC50 ± SD (μM), 3T3 Cell Line ([3]; 48 h): Inactive
O=C(N/N=C/c1ccc(O)c(O)c1O)c1ccc(O)cc1 [Compound 8, 4-Hydroxy-N′-[(E)-(2,3,4-trihydroxyphenyl)methylidene]benzohydrazide] | – | – | Inactive | –
O=C(N/N=C/c1ccc(Cl)cc1Cl)c1ccc(O)cc1 [Compound 15, 4-Hydroxy-N′-[(E)-(2,4-dichlorophenyl)methylidene]benzohydrazide] | – | – | Inactive | –
O=C(N/N=C/c1cc(Cl)ccc1O)c1ccc(O)cc1 [Compound 23, 4-Hydroxy-N′-[(E)-(5-chloro-2-hydroxyphenyl)methylidene]benzohydrazide] | – | – | Inactive | –
O=C(N/N=C/c1c(O)cc(O)cc1O)c1ccc(O)cc1 [Compound 7, 4-Hydroxy-N′-[(E)-(2,4,6-trihydroxyphenyl)methylidene]benzohydrazide] | – | – | Inactive | –
CN(C)c1ccc(/C=N/NC(=O)c2ccc(O)cc2)cc1 [Compound 17, 4-Hydroxy-N′-[(E)-[4-dimethylaminophenyl]methylidene]benzohydrazide] | – | – | unable to inhibit the enzyme; also recorded: Inactive | –
O=C(N/N=C/c1ccc(O)cc1)c1ccc(O)cc1 [Compound 3, 4-Hydroxy-N′-[(E)-(4-hydroxyphenyl)methylidene]benzohydrazide] | 199.4 ± 0.4 | Inactive | – | IC50 ± SD (μM), 3T3 Cell Line ([3]; 48 h): Inactive
COc1cccc(/C(C)=N/NC(=O)c2ccc(O)cc2)c1O [Compound 29, 4-Hydroxy-N′-[(E)-1-(2-hydroxy-3-methoxyphenyl)ethylidene]benzohydrazide] | 174.2 ± 1 | – | – | IC50 ([1]; Homo sapiens, PC-3, PC3 cells): 8.48 ± 0.592 µM; inhibition of the proliferation of PC3 cancer cells (in words) [1]: significantly inhibit; IC50 ([3]; Mus musculus, NIH3T3, 48 h): 18.6 ± 0.6 µM; inhibition of the proliferation of 3T3 cells (in words) [3]: significantly inhibit
C/C(=N\NC(=O)c1ccc(O)cc1)c1ccccc1O [Compound 25, 4-Hydroxy-N′-[(E)-1-(2-Hydroxyphenyl)ethylidene]benzohydrazide] | – | – | Inactive | –
COc1ccccc1/C=N/NC(=O)c1ccc(O)cc1 [Compound 9, 4-Hydroxy-N′-[(E)-(2-methoxyphenyl)methylidene]benzohydrazide] | 183.7 ± 1.5 | Inactive | – | IC50 ± SD (μM), 3T3 Cell Line ([3]; 48 h): Inactive
C/C(=N\NC(=O)c1ccc(O)cc1)c1ccc(O)cc1O [Compound 26, 4-Hydroxy-N′-[(E)-1-(2,4-dihydroxyphenyl)ethylidene]benzohydrazide] | – | – | Inactive | –
CSc1ccc(/C=N/NC(=O)c2ccc(O)cc2)cc1 [Compound 18] | – | – | unable to inhibit the enzyme; also recorded: Inactive | –
COc1ccc(/C=N/NC(=O)c2ccc(O)cc2)cc1 [Compound 10, 4-Hydroxy-N′-[(E)-(4-methoxyphenyl)methylidene]benzohydrazide] | 186 ± 2 | Inactive | – | IC50 ± SD (μM), 3T3 Cell Line ([3]; 48 h): Inactive
COc1ccc(O)c(/C=N/NC(=O)c2ccc(O)cc2)c1 [Compound 20, 4-Hydroxy-N′-[(E)-(2-hydroxy-5-methoxyphenyl)methylidene]benzohydrazide] | 172 ± 2.7 | – | – | IC50 ([1]; Homo sapiens, PC-3, PC3 cells): 10.5 ± 0.551 µM; inhibition of the proliferation of PC3 cancer cells (in words) [1]: significantly inhibit; inhibition of the proliferation of 3T3 cells (in words) [3]: significantly inhibit

Reference: US20170246130A1, “4-HYDROXYBENZOHYDARZIDE-A NEW CLASS OF ANGIOGENIC ENZYME THYMIDINE PHOSPHORYLASE INHIBITORS” (priority 2016, published 2017)
